The values below come from PubChem BioAssay (NCI).

Each structure is given as a SMILES string.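 The compound was tested at five concentrations on cells cultured in 96-well plates, with a 48-hour exposure period. TGI denotes the concentration required for complete inhibition of growth.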

Test systems include CCRF-CEM leukemia; SF-539 CNS; SK-MEL-2 melanoma; NCI-H23 lung; NCI-H522 lung; M14 melanoma; HS 578T breast; SNB-75 CNS; HOP-92 NSCLC; SW-620 colon.
Assay in all cases: NCI tumour cell line growth inhibition, 48 h

As for `Cn1c2ccccc2n2c(=O)c(-c3ccc(O)cc3)nnc12`, the TGI with CCRF-CEM leukemia, in the assay with SF-539 CNS, with SK-MEL-2 melanoma, in the assay on NCI-H23 lung, in the assay on NCI-H522 lung and in the assay on M14 melanoma was over 100 µM each time. The TGI in the assay on HS 578T breast is over 100 µM; with SNB-75 CNS, 75 µM; with HOP-92 NSCLC, over 100 µM; with SW-620 colon, over 100 µM.
As for `COC(=O)c1c(C)nc(C)c(N=O)c1-c1ccccc1C(F)(F)F`, the TGI in the assay on CCRF-CEM leukemia was over 100 µM; in the assay with SF-539 CNS, 45.8 µM; with SK-MEL-2 melanoma, over 100 µM; with NCI-H23 lung, 48.5 µM; with NCI-H522 lung, 18.7 µM; in the assay with M14 melanoma, 47.1 µM. Also, the TGI in the assay on HS 578T breast was found to be 44.8 µM; with HOP-92 NSCLC, 34.8 µM; with SW-620 colon, 30.1 µM.
Turning to `CCOc1ccc(N=NC2C(=O)N(C(=O)CC(=O)Nc3ccc(Cl)cc3)N=C2C)cc1` (stereo not drawn), the TGI in the assay with CCRF-CEM leukemia, in the assay with SF-539 CNS, in the assay on SK-MEL-2 melanoma, in the assay with NCI-H23 lung, in the assay with NCI-H522 lung and in the assay with M14 melanoma was over 100 µM throughout. The TGI with HS 578T breast, in the assay with SNB-75 CNS, in the assay on HOP-92 NSCLC and in the assay on SW-620 colon was over 100 µM in each case.
Regarding `O=C(O)CCCN1CCCCC1`, the TGI with CCRF-CEM leukemia, in the assay on SK-MEL-2 melanoma, in the assay on NCI-H23 lung, in the assay on NCI-H522 lung, with M14 melanoma and in the assay with HS 578T breast was over 100 µM throughout. The TGI in the assay on SNB-75 CNS, with HOP-92 NSCLC and in the assay on SW-620 colon was over 100 µM each time.
Turning to `NC(=O)c1cc2ccccc2c(N=Nc2ccccc2)c1O`, the TGI with CCRF-CEM leukemia, with SK-MEL-2 melanoma, in the assay on NCI-H23 lung, in the assay with NCI-H522 lung, in the assay on M14 melanoma and in the assay with HS 578T breast was over 100 µM each time. Besides, the TGI in the assay with SNB-75 CNS, with HOP-92 NSCLC and in the assay with SW-620 colon was over 100 µM throughout.
For `CCOC(=O)Nc1ccc(S(=O)(=O)Nc2ccc(Br)cc2)cc1`, the TGI was over 100 µM in the assay with CCRF-CEM leukemia; 35.4 µM in the assay on SF-539 CNS; over 100 µM with SK-MEL-2 melanoma; over 100 µM with NCI-H23 lung; over 100 µM in the assay with NCI-H522 lung; over 100 µM with M14 melanoma. In addition, the TGI with HS 578T breast, with HOP-92 NSCLC and with SW-620 colon was over 100 µM each time.
Take `N=C(/C=C/c1ccc(-c2cn3cc(/C=C/C(=N)N4CCOCC4)ccc3n2)cc1)N1CCOCC1`: the TGI in the assay on SF-539 CNS, with SK-MEL-2 melanoma, in the assay with NCI-H23 lung, with NCI-H522 lung, in the assay with M14 melanoma and in the assay on HS 578T breast was over 100 µM throughout. For the same molecule, the TGI in the assay on SNB-75 CNS, in the assay on HOP-92 NSCLC and with SW-620 colon was over 100 µM each time.
For the molecule `CCc1nnc2sc(-c3ccc(-c4ccc(Cl)cc4Cl)o3)nn12`, the TGI in the assay on CCRF-CEM leukemia, in the assay with SK-MEL-2 melanoma, in the assay with NCI-H23 lung, in the assay on NCI-H522 lung, in the assay with M14 melanoma and in the assay on HS 578T breast was over 100 µM throughout. Also, the TGI was 56 µM with SNB-75 CNS, over 100 µM in the assay on HOP-92 NSCLC and over 100 µM in the assay with SW-620 colon.
Turning to `CCOC(=O)c1c(OCC)[nH]c(=O)c(C(c2ccc(F)cc2)c2c(O)c(C(=O)OCC)c(OCC)[nH]c2=O)c1O`, the TGI in the assay on CCRF-CEM leukemia is over 100 µM; with SF-539 CNS it was 23.5 µM; in the assay on SK-MEL-2 melanoma, 37 µM; with NCI-H23 lung, 43.6 µM; in the assay with NCI-H522 lung, 42 µM; in the assay with M14 melanoma, 63.3 µM. For the same molecule, the TGI in the assay with HS 578T breast was over 100 µM; in the assay with HOP-92 NSCLC it was 18.1 µM; with SW-620 colon it was 51.1 µM.
As to `O=C(/C=C1\N=C(c2ccccc2)N(c2ccc3c(c2)Sc2cc(N4C(=O)/C(=C/C(=O)/C=C/c5ccccc5)N=C4c4ccccc4)ccc2N3)C1=O)/C=C/c1ccccc1`, the TGI in the assay on CCRF-CEM leukemia was 63 µM; in the assay with SK-MEL-2 melanoma, 38.2 µM; with NCI-H23 lung, over 100 µM; in the assay on NCI-H522 lung, 46.8 µM; in the assay on M14 melanoma, over 100 µM; in the assay with HS 578T breast, 96.3 µM. The TGI with SNB-75 CNS was 45.6 µM; in the assay with HOP-92 NSCLC, over 100 µM; with SW-620 colon, over 100 µM.
As to `COC(=O)C1Cc2c([nH]c3ccccc23)-c2[nH]c3ccccc3c2CC(NC(C)=O)C(=O)NCC(=O)N1` (stereo not drawn), the TGI in the assay on CCRF-CEM leukemia, in the assay on SF-539 CNS, with SK-MEL-2 melanoma, in the assay on NCI-H23 lung, in the assay with NCI-H522 lung and in the assay on HS 578T breast was over 100 µM in each case. Moreover, the TGI with SNB-75 CNS, in the assay on HOP-92 NSCLC and in the assay on SW-620 colon was over 100 µM each time.
Consider `CC(=O)NC1C(OCC(=O)NC(C)C(=O)NC(CCC(=O)NCCCCCNc2ccc([N+](=O)[O-])c3[nH]c4ccccc4c(=O)c23)C(N)=O)C(O)C(CO)OC1(C)OCc1ccccc1` (stereo not drawn), for which the TGI in the assay with CCRF-CEM leukemia, in the assay on SF-539 CNS, in the assay on SK-MEL-2 melanoma, with NCI-H23 lung, in the assay with NCI-H522 lung and in the assay on M14 melanoma was over 50 µM each time. The TGI in the assay with HS 578T breast, with SNB-75 CNS and with SW-620 colon was over 50 µM each time.
For `COCOc1cc(OC)ccc1C=O`, the TGI is over 100 µM in the assay on CCRF-CEM leukemia; 61.9 µM with SF-539 CNS; over 100 µM in the assay on SK-MEL-2 melanoma; over 100 µM in the assay on NCI-H23 lung; over 100 µM in the assay on NCI-H522 lung; over 100 µM in the assay with M14 melanoma. The TGI in the assay with HS 578T breast is 64.9 µM; with SNB-75 CNS, over 100 µM; in the assay with SW-620 colon it was over 100 µM.
On to `c1ccc(COc2nc3ccc(C45CC6CC(CC(C6)C4)C5)cc3[nH]2)cc1`, for which the TGI is over 100 µM in the assay on CCRF-CEM leukemia; 52.6 µM in the assay with SK-MEL-2 melanoma; over 56.6 µM in the assay on NCI-H23 lung; 13.9 µM with NCI-H522 lung; 98.4 µM with M14 melanoma; over 75.7 µM in the assay with HS 578T breast. The results for the TGI with SNB-75 CNS, in the assay with HOP-92 NSCLC and in the assay on SW-620 colon were over 86.5 µM, 49.8 µM and over 100 µM, respectively.
